What was measured:
Settings in all cases: exposure time 48 h
[1] = tested on: Caenorhabditis elegans N2; test: AC50 for larval growth inhibition (Hill fit); higher = less potent
How it was run: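 Worms were synchronised C. elegans N2 L1 larvae, 50 per well of a 96-well plate, kept 48 h at 20°C in K-medium with killed OP50, 1% DMSO and 0.5–200 µM chemical. Size was taken as COPAS Biosort extinction, log-transformed and averaged per well, using only wells with at least 10 worms. AC50 was estimated by a constrained Hill fit with weighted genetic-algorithm regression; values outside the range are censored.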

[2] = tested on: Caenorhabditis elegans N2; test: lowest effective concentration for larval growth inhibition (size below effect threshold); higher = less potent
How it was run: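 Chemical exposure ran for 48 h at 20°C: 50 C. elegans N2 L1 larvae per 96-well in K-medium with killed bacteria, 1% DMSO and 0.5, 1, 5, 10, 50, 100 or 200 µM chemical. Extinction of each worm, read as size on the Biosort, was log-transformed and averaged by well. The lowest effective concentration is the first dose whose plate-adjusted mean size is below a fixed value and remains so at all higher doses; the value is 5.665.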

[3] = tested on: Caenorhabditis elegans N2; test: mean nematode size ln(EXT) after 48 h, plate-adjusted (DMSO control set to 6) (ln(EXT), control-adjusted); higher = larger nematodes / less growth inhibition
How it was run: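 Worms were measured individually for extinction on the Biosort after 48 h at 20°C. They began as synchronised C. elegans N2 L1 larvae in K-medium with killed OP50, 1% DMSO and 0.5–200 µM chemical. Once debris had been removed by a growth model, values were natural-logged and averaged per well to give mean size. The plate adjustment subtracted the vehicle control mean and added 6.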

| Structure (SMILES) | AC50 for larval growth inhibition [1] [µM] | lowest effective concentration [2] [µM] | mean nematode size ln(EXT) (ln) ([3]; 0.5 µM) | mean nematode size ln(EXT) (ln) ([3]; 1 µM) | mean nematode size ln(EXT) (ln) ([3]; 5 µM) | mean nematode size ln(EXT) (ln) ([3]; 10 µM) | mean nematode size ln(EXT) (ln) ([3]; 50 µM) | mean nematode size ln(EXT) (ln) ([3]; 100 µM) | mean nematode size ln(EXT) (ln) ([3]; 200 µM) |
| --- | --- | --- | --- | --- | --- | --- | --- | --- | --- |
| OC(c1ccc(Cl)cc1)(c1ccc(Cl)cc1)C(Cl)(Cl)Cl [Dicofol] | 10.8 | ≤ 0.5 | 5.64 | 5.63 | 5.3 | 4.39 | 3.83 | 3.61 | 3.35 |
| CC/C(=N\OC/C=C/Cl)C1=C(O)CC(C2CCOCC2)CC1=O (stereo not given) [Tepraloxydim] | > 200 | 200 | 5.72 | 5.89 | 5.74 | 5.83 | 5.77 | 5.86 | 5.43 |
| O=C(OCCCCCOC(=O)c1ccccc1)c1ccccc1 [1,5-Pentanediol,1,5-dibenzoate] | > 200 | 200 | 5.88 | 5.89 | 5.84 | 5.85 | 5.86 | 5.98 | 5.48 |
| CCN(Cc1c(F)cccc1Cl)c1c([N+](=O)[O-])cc(C(F)(F)F)cc1[N+](=O)[O-] [Flumetralin] | 180 | 200 | 6.16 | 6.01 | 6 | 6.02 | 6.1 | 6.11 | 3.65 |
| Nc1nc(N)c2nc(CNc3ccc(C(=O)NC(CCC(=O)O)C(=O)O)cc3)cnc2n1 (stereo not given) [Aminofolic acid, 4-] | > 200 | 200 | 5.89 | 5.91 | 5.86 | 5.86 | 5.82 | 5.82 | 5.39 |
| CCCCCCCC(=O)OC [Methyl octanoate] | > 200 | 200 | 5.88 | 5.84 | 5.85 | 5.9 | 5.74 | 5.88 | 5.52 |
| Cc1nn(-c2cc(NS(C)(=O)=O)c(Cl)cc2Cl)c(=O)n1C(F)F [Sulfentrazone] | 108 | 200 | 5.85 | 5.87 | 5.92 | 5.96 | 6.05 | 5.9 | 5.5 |
| N#CC(CCc1ccc(Cl)cc1)(Cn1cncn1)c1ccccc1 (stereo not given) [Fenbuconazole] | 177 | 10 | 6.18 | 6.1 | 6.07 | 5.65 | 5.13 | 5.27 | 4.39 |
| CCOc1cccc(C2(N3CCN(c4ccccc4)CC3)CCC(C)CC2)c1 (stereo not given) | > 200 | 200 | 5.73 | 5.87 | 5.72 | 5.79 | 5.69 | 5.67 | 5.56 |
| O=S1OCC2C(CO1)C1(Cl)C(Cl)=C(Cl)C2(Cl)C1(Cl)Cl (stereo not given) [Endosulfan] | 6.12 | 5 | 5.74 | 5.72 | 5.08 | 3.84 | 3.51 | 3.24 | 3.47 |
| CN1CCC[C@H]1c1cccnc1 [Nicotine] | > 200 | 100 | 5.88 | 5.83 | 5.83 | 5.87 | 5.87 | 5.38 | 5.56 |
| CCc1nc(N)nc(N)c1-c1ccc(Cl)cc1 [Pyrimethamine] | > 200 | 50 | 5.86 | 5.91 | 6.02 | 5.67 | 5.66 | 5.43 | 4.91 |
| CCOC(=O)COc1ccc2c(c1)CC(NCC(O)c1cccc(Cl)c1)CC2 (stereo not given) | > 200 | 200 | 5.79 | 5.81 | 5.87 | 5.81 | 5.76 | 5.75 | 5.5 |
| FC(F)C(F)(F)OCC(Cn1cncn1)c1ccc(Cl)cc1Cl (stereo not given) [Tetraconazole] | 48.5 | 10 | 5.81 | 5.97 | 5.98 | 5.65 | 4.91 | 4.36 | 4.07 |
| CCCCCCCCCCCCOS(=O)(=O)[O-].[Na+] [Sodium dodecyl sulfate] | 24.5 | 10 | 5.87 | 5.81 | 5.75 | 5.47 | 4.99 | 4.66 | 4.69 |
| Cc1cc2c(cc1C(F)(F)F)N(C(=O)Nc1ccc(Oc3cccnc3C)nc1)CC2 | > 200 | 200 | 5.88 | 5.73 | 5.86 | 5.71 | 5.75 | 5.67 | 5.57 |
| c1ccc2c(c1)oc1ccccc12 [Dibenzofuran] | 126 | 50 | 5.88 | 5.9 | 5.93 | 5.87 | 5.61 | 5.1 | 3.65 |
| Fc1ccc(Oc2ccnc3cc(Cl)cc(Cl)c23)cc1 [Quinoxyfen] | 1.53 | ≤ 0.5 | 4.9 | 5.31 | 4.26 | 4.2 | 3.97 | 4 | 3.68 |
| O=C(O)c1cccc(C[C@@H]2COc3ccc(OCc4nc5cc(F)ccc5s4)cc3[C@@H]2O)c1 | > 200 | 200 | 5.95 | 5.88 | 5.79 | 5.88 | 5.87 | 5.92 | 5.09 |
| CCOP(=S)(OCC)Oc1ccc2c(C)c(Cl)c(=O)oc2c1 [Coumaphos] | 3.33 | ≤ 0.5 | 5.36 | 5.23 | 4.39 | 4.44 | 3.95 | 3.82 | 3.58 |
| OCCC(F)(F)C(F)(F)C(F)(F)C(F)(F)C(F)(F)C(F)(F)C(F)(F)C(F)(F)F [1,1,2,2-Tetrahydroperfluoro-1-decanol] | > 200 | 10 | 5.86 | 5.67 | 5.72 | 5.62 | 5.54 | 5.37 | 4.6 |
| CCC[CH2][Sn]([Cl])([CH2]CCC)[CH2]CCC [Tributyltin chloride] | < 0.5 | ≤ 0.5 | 4.58 | 4.74 | 3.7 | 3.56 | 3.85 | 3.97 | 3.48 |
| CC(COc1ccc(Oc2ccccc2)cc1)Oc1ccccn1 (stereo not given) [Pyriproxyfen] | 1.37 | ≤ 0.5 | 5.55 | 5.44 | 5.14 | 4.87 | 4.84 | 4.7 | 4.81 |

| Structure (SMILES) | AC50 for larval growth inhibition [1] [µM] | lowest effective concentration [2] [µM] | mean nematode size ln(EXT) (ln) ([3]; 0.5 µM) | mean nematode size ln(EXT) (ln) ([3]; 1 µM) | mean nematode size ln(EXT) (ln) ([3]; 5 µM) | mean nematode size ln(EXT) (ln) ([3]; 10 µM) | mean nematode size ln(EXT) (ln) ([3]; 50 µM) | mean nematode size ln(EXT) (ln) ([3]; 100 µM) | mean nematode size ln(EXT) (ln) ([3]; 200 µM) |
| --- | --- | --- | --- | --- | --- | --- | --- | --- | --- |
| C#CCOS(=O)OC1CCCCC1Oc1ccc(C(C)(C)C)cc1 (stereo not given) [Propargite] | 150 | 200 | 5.95 | 6.19 | 5.99 | 6.05 | 5.82 | 5.88 | 3.35 |
| CCCCCCCC/C=C\CCCCCCCC(=O)OC[C@@H](O)[C@H]1OC[C@H](O)[C@H]1O [Sorbitan, mono-(9Z)-9-octadecenoate] | > 200 | 200 | 5.92 | 5.88 | 5.92 | 5.89 | 5.89 | 5.83 | 5.34 |
| CCN1CCC2(CC1)COc1cc3c(cc12)N(C(=O)c1ccc(-c2ccc(-c4nnc(C)o4)cc2C)cc1)CC3 | 52.6 | 50 | 5.74 | 5.82 | 5.74 | 5.84 | 5.56 | 4.06 | 4.5 |
| C=CCC1=C(C)C(OC(=O)C2C(C=C(C)C)C2(C)C)CC1=O (stereo not given) [Allethrin] | > 200 | 50 | 5.9 | 5.91 | 5.87 | 5.86 | 5.64 | 5.59 | 5.23 |
| CC(C)COC(=O)c1ccccc1C(=O)OCC(C)C [Diisobutyl phthalate] | 96.3 | 100 | 5.93 | 5.94 | 5.9 | 5.95 | 6.12 | 5.58 | 5.43 |
| CCCCC(C#N)(Cn1cncn1)c1ccc(Cl)cc1 (stereo not given) [Myclobutanil] | > 200 | 100 | 5.83 | 5.77 | 5.8 | 5.86 | 5.68 | 5.55 | 4.8 |
| CC(Oc1ccc(Cl)cc1Cl)C(=O)O (stereo not given) [Dichlorprop] | 106 | 200 | 5.91 | 5.93 | 5.86 | 6.06 | 6.04 | 5.88 | 5.44 |
| CN1C(=O)CC[C@H]1c1cccnc1 [(-)-Cotinine] | > 200 | 200 | 5.86 | 5.93 | 5.88 | 5.82 | 5.9 | 5.87 | 5.65 |
| CCCCCCCCCCCCCO [1-Tridecanol] | 15.4 | 5 | 5.9 | 5.76 | 5.58 | 5.34 | 3.57 | 3.5 | 3.54 |
| CCNC(=O)NC(=O)/C(C#N)=N/OC [Cymoxanil] | > 200 | 100 | 6.18 | 6.05 | 6.07 | 6.11 | 5.79 | 5.58 | 4.81 |
| c1ccc(Nc2ccccc2)cc1 [Diphenylamine] | 7.4 | 10 | 5.86 | 5.75 | 5.83 | 4.11 | 3.96 | 3.87 | 4.5 |
| CN(C)C(=O)Nc1ccc(Cl)c(Cl)c1 [Diuron] | 179 | 200 | 6.19 | 6.62 | 6.24 | 6.31 | 6.48 | 6.26 | 5.16 |
| CCCCN(CC)c1c([N+](=O)[O-])cc(C(F)(F)F)cc1[N+](=O)[O-] [Benfluralin] | 175 | 50 | 5.76 | 5.73 | 5.82 | 5.7 | 5.31 | 5.04 | 4.16 |
| COCCOCCOCCOC [Triethylene glycol dimethyl ether] | > 200 | 200 | 5.75 | 6.01 | 5.91 | 5.91 | 5.72 | 5.81 | 5.64 |
| COC(=O)c1c(Cl)c(Cl)c(C(=O)OC)c(Cl)c1Cl [Chlorthal-dimethyl] | > 200 | 100 | 5.89 | 5.95 | 5.78 | 5.83 | 5.75 | 5.56 | 5.42 |
| CC(=O)N1CCN(c2ccc(OCC3COC(Cn4ccnc4)(c4ccc(Cl)cc4Cl)O3)cc2)CC1 (stereo not given) [Ketoconazole] | 85.2 | 10 | 6 | 5.74 | 5.8 | 5.62 | 5.3 | 4.28 | 3.53 |
| COc1cc(OC)nc(NC(=O)NS(=O)(=O)c2ncccc2OCC(F)(F)F)n1 [Trifloxysulfuron-sodium] | 196 | 200 | 5.81 | 5.77 | 6.02 | 5.88 | 5.9 | 5.97 | 5.51 |
| CC(C)(C)c1ccc(O)c(C(C)(C)C)c1 [2,4-Di-tert-butylphenol] | 186 | 50 | 5.97 | 5.97 | 5.99 | 5.88 | 5.62 | 5.5 | 4.45 |
| CC(=O)CC(c1ccccc1)c1c(O)c2ccccc2oc1=O (stereo not given) [Warfarin] | > 200 | 200 | 5.8 | 5.94 | 5.97 | 5.89 | 5.91 | 5.81 | 5.59 |
| CCCCCCCCCCCCc1cccc(S(=O)(=O)O)c1 [Triethanolamine dodecylbenzene sulfonate] | 50.5 | 50 | 5.43 | 5.59 | 5.54 | 5.69 | 5.03 | 4.02 | 4.04 |
| C=CCOC(Cn1ccnc1)c1ccc(Cl)cc1Cl (stereo not given) [Imazalil] | > 200 | 200 | 5.91 | 6.17 | 6.07 | 5.99 | 5.83 | 5.74 | 4.6 |
| FC(F)(F)C(F)(F)C(F)(F)C(F)(F)C(F)(F)C(F)(F)CCI [1H,1H,2H,2H-Perfluorooctyl iodide] | 190 | 200 | 5.99 | 5.98 | 5.95 | 5.96 | 5.94 | 5.86 | 4.39 |

— the supplement of paper PMC4858399
